Where a name gives a salt, the structure may show the parent alone.
How the values were obtained:
optic nerve cell [1] = test: In vivo optic nerve cell regeneration after optic nerve cut and sciatic nerve autograft (Example 2); parameters: species or system SD rats; settings: 120 μmol/L, 5 μL into the vitreous body plus gelatin pieces with 10 μmol/L around the autograft, 6 weeks after grafting
Description: The optic nerve of SD rats weighing 220-280 g was cut under pentobarbital sodium (0.4 mg/kg, i.p.) anesthesia. Separately, the sciatic nerve of the optic nerve-severed rat was taken out in about 3-4 cm and autografted at an end of the optic nerve, which had been cut earlier. The compound 1 dissolved to 120 μmol/L was injected into the vitreous body by 5 μL immediately before cutting the optic nerve, and gelatin pieces (3 mm×3 mm; Spongel, Yamanouchi Pharm.) immersed in a 10 μmol/L solution of compound 1 were embedded around the autograft (compound 1 treatment group). For the non-treatment group, physiological saline was used instead of compound 1 for both the injection into the vitreous body and preparation of the gelatin pieces. […] The images of the retinal extension samples observed under a microscope were directly imported into computer images from the fluorescence microscope and the retrogradedly labeled retinal ganglion cells were counted using an image analyzing soft (MacSCOP, MITANI CO.). […]
The ratios (%) of the regenerated cell counts of the non-treatment group and compound 1 treatment group, relative to the optic nerve cell counts of the control, were calculated.

retinal ganglion cell [2] = test: In vitro extension of nerve axon of cultured retinal ganglion cells (Example 1); type: cell-based, Wistar rat; settings: then 10 μM compound added, further 24 hrs
Description: Retinal ganglion cells were isolated from an eye ball of a Wistar rat, and cultured in a 48 well plate coated with polylysin (50 μg/mL, Sigma) and merosin (2 μg/mL, GIBCO) at 37° C. under the environment of 5% CO2, 95% air. The number of the cells was about 5000 cells/well. The culture solutions were a culture solution (fetal calf serum-free culture solution) of Neurobasal Medium (GIBCO) supplemented with 50 ng/mL BDNF (human brain-derived neurotrophic factor, Sigma), 50 ng/mL CNTF (rat cilliary neurotrophic factor, Sigma), 5 μM forskolin (Sigma), 1 mM glutamine (Wako) and B27 Supplement (GIBCO; 1 mL/50 mL culture solution), and a culture solution (FCS supplemented culture solution) of the aforementioned fetal calf serum-free culture solution supplemented with 10% fetal calf serum (hereinafter to be also referred to as FCS). After culture for 24 hrs in each culture solution, the group cultured in the FCS supplemented culture solution was divided into 2 groups, and one of them was used as a compound 1 addition group with the addition of 10 μM of compound 1, and the other was used as a compound 1 non-addition group. Similarly, the group cultured in the FCS-free culture solution was divided into a compound 1 addition group and a compound 1 non-addition group. […]

optic nerve cell [3] = test: In vivo optic nerve cell regeneration after optic nerve cut and sciatic nerve autograft (Example 4); parameters: species or system SD rats; settings: for regenerated optic nerve cell count relative to the control group: control = physiological saline; for regenerated optic nerve cell count relative to the normal group: 5 μL into the vitreous body, 6 weeks after grafting
Description: The optic nerve of SD rats weighing 220-280 g was cut under pentobarbital sodium (0.4 mg/kg, i.p.) anesthesia. Separately, the sciatic nerve of the optic nerve-severed rat was taken out in about 3-4 cm and autografted at an end of the optic nerve, which had been cut-earlier. The compound 2 dissolved to 120 μM was injected into the vitreous body by 5 μL immediately before cutting the optic nerve, and gelatin pieces (3 mm×3 mm; Spongel, Yamanouchi Pharm.) immersed in a 10 μM solution of compound 2 were embedded around the autograft (compound 2 treatment group—1). For compound 2 treatment group—2, the compound 2 dissolved to 1.2 mM was injected into the vitreous body by 5 μL and 100 μM of compound 2 was used around the graft. In the control group, physiological saline was used instead of compound 2. During the grafting, attention was paid to avoid damage to the ophthalmic artery, and after grafting, the retinal vascular network was confirmed with a funduscope before breeding under a temperature 23° C.±2, humidity-55±10% environment. The rats were allowed to have a free access to a feed and water. After 6 weeks from the grafting operation, the graft was transversely cut under pentobarbital sodium (0.4 mg/kg, i.p.) anesthesia, and 4-Di-10ASP [4-(4-didecylaminostyryl)-N-methyl-propidium iodide, Sigma, St. Louis, Mo.] crystal (ca. 2 mg) was embedded in the cut area of the graft, thereby to retrogradely label retinal ganglion cells. […]. The images of the retinal extension samples observed under a microscope were directly imported into computer images from the fluorescence microscope and the retrogradely labeled retinal ganglion cells were counted using an image analyzing soft (MacSCOP, MITANI CO.) (FIG. 4). The obtained number of the retrogradely labeled retinal ganglion cells was taken as indicating the regenerated optic nerve cells. Meanwhile, the optic nerve of the rat free of grafting was cut, 4-Di-10ASP crystal (ca. 2 mg) was embedded similarly, and the number of the labeled retinal ganglion cells of the retinal extension sample was taken as the number of optic nerve cells of the normal group.
The ratios (%) of the regenerated optic nerve cell counts of the control group, compound 2 treatment group—1 and compound 2 treatment group—2, relative to the optical nerve cell counts of the control, were calculated.

retinal ganglion cell [4] = test: In vitro extension of nerve axon of cultured retinal ganglion cells (Example 3); type: cell-based, Wistar rat
Description: Retinal ganglion cells were isolated from an eye ball of a Wistar rat and cultured in a 48 well plate coated with polylysine (50 μg/mL, Sigma) and merosin (2 μg/mL, GIBGO) at 37° C. under the environment of 5% CO2, 95% air. The number of cells was about 5000 cells/well. The culture solution was a culture solution (FCS-free culture solution) of Neurobasal Medium (GIBCO) supplemented with 50 ng/mL BDNF (human brain-derived neurotrophic factor, Sigma), 50 ng/mL CNTF (rat cilliary neurotrophic factor, Sigma), 5 μM forskolin (Sigma), 1 mM glutamine (Wako) and B27 Supplement (GIBCO; 1 mL/50 mL culture solution). After culture for 24 hrs in a culture solution of the aforementioned FCS-free culture solution supplemented with 10% FCS (FCS-supplemented culture solution containing Rho activator) and an FCS-free culture solution, the group cultured in the FCS-free culture solution was divided into 2 groups, and one of them was used as a compound 2 addition group with the addition of 10 μM of compound 2, and the other was used as a compound 2 non-addition group. After further culture for 24 hrs, the level of extension of nerve axon of a retinal ganglion cell was observed under an inverted light microscope. In addition, 1 μM lysophosphatidic acid (LPA), which is a Rho activator, was added to an FCS-free group and axon retraction due to Rho activation was also examined.

retinal ganglion cell [5] = test: In vitro axon length of cultured retinal ganglion cells, Calcein AM image analysis (Example 5); type: cell-based, Wistar rats; settings: 10 μM final concentration, N=3; for proportion of long neurites cells (axon not less than 100 μm) relative to the whole cells: control group 7%; for proportion of middle neurites cells (axon 21 μm-99 μm) relative to the whole cells: control group 12%
Description: In the same manner as in Examples 1 and 3, retinal ganglion cells isolated from the eye ball of 6 to 8-day-old Wistar rats (male-female mixture, SLC) were cultured (cell count: ca. 2000 cells/well). The test compounds (compounds 3-5) were added to the culture solution to the final concentration of 10 μM and respectively used as compound 3 addition group, compound 4 addition group and compound 5 addition group. The control was a test compound non-addition group. The compound 3 (4-[2-(2,3,4,5,6-pentafluorophenyl)acryloyl]cinnamic acid) was synthesized according to the description of Example 8 of JP-A-2000-44513 and used. As compound 4 (ethacrynic acid), one made by Sigma was used and as compound 5 (fasudil hydrochloride), a commercially-available fasudil hydrochloride hydrate injection: “Eril® Injection 30 mg” (produced and sold by Asahi Kasei Corporation) was used.
Using LIVE/DEAD® Viability/Cytotoxicity Kit (L-3224)(Molecular probes) and utilizing the fluorescence characteristics of viable cells by Calcein AM, Calcein AM was uptaken into the retinal ganglion cells and the level of extension of nerve axon of a retinal ganglion cell was observed under a fluorescence microscope. The images of the retinal extension samples observed under a microscope were directly imported into computer images from the fluorescence microscope and the length of the nerve axon was measured using an image analyzing soft (MacSCOP, MITANI CO.). The cells having an axon of not less than 100 μm in length were taken as long neurites cells, the cells having an axon of 21 μm-99 μm were taken as middle neurites cells, and the cells having an axon of not more than 20 μm in length were taken as short neurites cells (no axonal extension). The proportion (%) of the long neurites cells and middle neurites cells relative to the whole cells was calculated for each.

C[C@@H](N)c1ccc(C(=O)Nc2ccnc3[nH]ccc23)cc1.C[C@@H](N)c1ccc(C(=O)Nc2ccnc3[nH]ccc23)cc1.Cl.Cl.Cl.Cl.O.O.O [compound 1, (R)-(+)-N-(1H-pyrrolo[2,3-b]pyridin-4-yl)-4-(1-aminoethyl)benzamide dihydrochloride 3/2 hydrate]
regenerated optic nerve cell count relative to the non-treatment group (optic nerve cell [1]): about 2.4 times | regenerated optic nerve cell count relative to the control group (optic nerve cell [1]; control = rat free of grafting): about 12% | level of extension of nerve axon of a retinal ganglion cell (retinal ganglion cell [2]; FCS-free culture solution 24 hrs): the extension of nerve axon became remarkable | level of extension of nerve axon of a retinal ganglion cell (retinal ganglion cell [2]; FCS-supplemented culture solution 24 hrs, versus non-addition group): clearly showed a retinal ganglion cell nerve axon extending action

C[C@@H](N)c1ccc(C(=O)Nc2ccnc3[nH]ccc23)cc1.Cl [compound 2, (R)-(+)-N-(1H-pyrrolo[2,3-b]pyridin-4-yl)-4-(1-aminoethyl)benzamide monohydrochloride]
regenerated optic nerve cell count relative to the control group (optic nerve cell [3]; treatment group-1: 120 μM intravitreal, 10 μM around the autograft): about 2.3 times | regenerated optic nerve cell count relative to the normal group (optic nerve cell [3]; treatment group-1: 120 μM, 10 μM gelatin pieces around the autograft): about 16% | regenerated optic nerve cell count relative to the control group (optic nerve cell [3]; treatment group-2: 1.2 mM intravitreal, 100 μM around the graft): about 4 times | regenerated optic nerve cell count relative to the normal group (optic nerve cell [3]; treatment group-2: 1.2 mM, 100 μM around the graft): about 28% | level of extension of nerve axon of a retinal ganglion cell (retinal ganglion cell [4]; FCS-free culture solution 24 hrs, then 10 μM compound added, further 24 hrs): clearly showed an action of extending the nerve axon of the retinal ganglion cell

C=C(C(=O)c1ccc(C=CC(=O)O)cc1)c1c(F)c(F)c(F)c(F)c1F [compound 3, 4-[2-(2,3,4,5,6-pentafluorophenyl)acryloyl]cinnamic acid]
proportion of long neurites cells (axon not less than 100 μm) relative to the whole cells (retinal ganglion cell [5]): 22% | proportion of middle neurites cells (axon 21 μm-99 μm) relative to the whole cells (retinal ganglion cell [5]): 23%

C=C(CC)C(=O)c1ccc(OCC(=O)O)c(Cl)c1Cl [compound 4, ethacrynic acid]
proportion of long neurites cells (axon not less than 100 μm) relative to the whole cells (retinal ganglion cell [5]): 11% | proportion of middle neurites cells (axon 21 μm-99 μm) relative to the whole cells (retinal ganglion cell [5]): 45%

O=S(=O)(c1cccc2cnccc12)N1CCCNCC1 [compound 5, fasudil hydrochloride]
proportion of long neurites cells (axon not less than 100 μm) relative to the whole cells (retinal ganglion cell [5]): 15% | proportion of middle neurites cells (axon 21 μm-99 μm) relative to the whole cells (retinal ganglion cell [5]): 53%

lysophosphatidic acid [LPA, reference compound]
axon retraction due to Rho activation (retinal ganglion cell [4]; FCS-free culture solution 44 hrs, then 1 μM LPA, further 4 hrs): axon retraction effect

From patent US7696194B2, “Visual function disorder improving agents” (Senju Pharmaceutical Co., Ltd., priority 2001, dated 2010)
